Results taken from patent US20230114280A1, “COMPOSITIONS AND METHODS CONTAINING REDUCED NICOTINAMIDE RIBOSIDE FOR PREVENTION AND TREATMENT OF NEUROLOGICAL DISEASES AND CONDITIONS” (SOCIETE DES PRODUITS NESTLE S.A., priority 2020, published 2023).
Entries after “also recorded” stand apart in the source; their conditions may differ. Counter-ions that a name gives are not always drawn. Values belong to the compound of their own block, whether it stands above or below them.

Columns and labels:
C2C12 myotubes = assay: NAD+ levels after NRH treatment in C2C12 myotubes; assay type: cell-based
[1] = system: Primary rat cortical neurons; assay: Amyloid β oligomer induced loss of neurite network in primary cortical neurons (MAP-2 staining); assay type: cell-based; details: NRH 0.01 mM pre-incubated 24 hr or 6 hr, Aβ1-42 15 µmol/L for 24 h
Method: FIG. 7. […] Primary rat cortical neurons were cultured as described in Callizot et al., 2013. […] The Aβ1-42 preparation was done as described in Callizot et al., 2013. The Aβ1-42 preparation was added to a final concentration of 15 µmol/L (2.25 µmol/L oligomers, AβO) diluted in control medium in presence of compounds and let for 24 h. The cortical neurons were then fixed by a cold solution of ethanol (95%) and acetic acid (5%), permeabilized with saponin and incubated with an anti microtubule-associated-protein 2 (MAP-2), to stain cell bodies and neurites, allowing the study of the length of the neurite network. For each condition, 30 pictures (representative of the all well area) per well were taken using ImageXpress (Molecular Devices) with 20x magnification. Neurite length was then evaluated as % of control values. All values are expressed as mean +/-SEM from 5-6 independent wells. * indicates statistically significant difference vs. the amyloid b1-42 treated groups.
Primary rat cortical neurons were cultured as described in Callizot et al., 2013. […] The Aβ1-42 preparation was done as described in Callizot et al., 2013. The Aβ1-42 preparation was added to a final concentration of 15 µmol/L (2.25 µmol/L oligomers, AβO) diluted in control medium in presence of compounds and let for 24 h. […] Neurite length was then evaluated as % of control values.

[2] = Stability of NRH or NR spiked in isolated mouse plasma; assay type: in vitro ADME
Method: (§1) The UHPLC consisted of a binary pump, a cooled autosampler, and a column oven (DIONEX Ultimate 3000 UHPLC+ Focused, Thermo Scientific), connected to a triple quadrupole spectrometer (TSQ Vantage, Thermo Scientific) equipped with a heated electrospray ionisation (H-ESI) source. Of each sample, 2 µL were injected into the analytical column (2.1 mm x 150 mm, 5 µm pore size, 200 Å HILICON iHILIC®-Fusion(P)), guarded by a pre-column (2.1 mm x 20 mm, 200 Å HILICON iHlLIC®-Fusion(P) Guard Kit) operating at 35° C. The mobile phase (10 mM ammonium acetate at pH 9, A, and acetonitrile, B) was pumped at 0.25 mL/min flow rate over a linear gradient of decreasing organic solvent (0.5-16 min, 90-25% B), followed by re-equilibration for a total run time of 30 min. The MS operated in positive mode at 3500 V with multiple reaction monitoring (MRM). The software Xcalibur v4.1.31.9 (Thermo Scientific) was used for instrument control, data acquisition and processing.
(§2) NR degradation to NAM has been proposed as a limitation for its pharmacological efficacy.

[3] = Circulating NAM, NRH and NR after IP injection in mice; assay type: in vivo
Method: as §1

[4] = Description: as §2
AML12 cells = assay: Pathway of NRH-induced NAD+ synthesis: intracellular metabolites and pathway inhibitors (NBTI, FK866, 5-IT, ABT-702, gallotannin); assay type: cell-based; parameters: action on NAD+ under adenosine kinase inhibition by 5-IT: dose or concentration left out as unconfirmed
Method: FIG. 4. NRH leads to NAD+ biosynthesis through an adenosine kinase dependent path. […] Then, 1 hour later, acidic extracts were obtained to measure NAD^+ levels. All values in the figure are expressed as mean +/- SEM of 3 independent experiments. * indicates statistical difference at p< 0.05 vs. the respective vehicle treated group.
A path in which NRH would be converted to NMNH, then to NADH and this would be finally oxidized to NAD+.
In order to understand the exact path by which NRH synthesizes NAD+, we initially evaluated whether NRH, could be transported into the cell by equilibrative nucleoside transporters (ENTs).
(§3) If NRH led to NAD+ synthesis via the formation of NMNH, this hypothetical path would require the phosphorylation of NRH into NMNH.
Considering the molecular structure of NRH, we reasoned that an alternative nucleoside kinase could be responsible for the phosphorylation of NRH.
As a follow-up step, NMNAT enzymes could catalyze the transition from NMNH to NADH.

INS1-cells = assay: NAD+ levels after NRH treatment in INS1-cells; assay type: cell-based
AML12 hepatocytes = assay: Intracellular NAD+ levels in AML12 hepatocytes treated with NRH or NR (dose-response, time course); assay type: cell-based
Method: FIG. 3. NHR acts rapidly after 5 minutes from treatment.

mice = assay: Tissue NAD+ levels after IP injection of NR or NRH in mice; assay type: in vivo; details: IP 500 mg/kg, after 1 h
3T3 fibroblasts = assay: NAD+ levels after NRH treatment in 3T3 fibroblasts; assay type: cell-based
[5] = system: primary hepatocytes from either control or NRK1 knockout (NRK1 KO) mice; assay: NAD+ levels in primary hepatocytes from control or NRK1 knockout mice; assay type: cell-based; details: after 1 hour of treatment
Description: as §3

NR production on incubation in isolated plasma [2]: did not lead to NR production | NAM levels in circulation ([3]; mouse, in vivo, ip, 500 mg/kg): only a very mild increase | degradation to NAM in FBS supplemented media [4]: did not degrade to NAM
Compound: dihydro-1-beta-D-ribofuranosyl-3-pyridinecarboxamide [NRH]
NAD+ levels (C2C12 myotubes): highly elevated NAD+ levels | neurite network / neurite length after Amyloid β1-42 exposure [1]: protects against Amyloid β oligomer induced loss of neurite network; also recorded: protects against Amyloid β-oligomer induced toxicity in terms of neurite length | NR in circulation ([3]; mouse, in vivo): much higher levels than those detected after NR injection itself | action on NAD+ under adenosine kinase inhibition by 5-IT (AML12 cells; 5-IT for 1 hour prior to NRH, NAD+ measured 1 hour later): fully ablated the action of NRH | formation of NR and NMN after NRH treatment with 5-IT (AML12 cells; 5-IT treatment): prevented the formation of NR and NMN | intracellular detection of NRH and NMNH (AML12 cells; 5 minutes after treatment): could be detected intracellularly | generation of NMNH, NADH and NAD+ upon inhibition of AK (metabolomic analyses) (AML12 cells; after NRH treatment): fully blunted | intracellular NR and NMN after treatment (AML12 cells; compared with NR treatment): increase in intracellular NR and NMN, greater than that triggered by NR itself | NAD+ synthesis with NMNAT inhibitor gallotannin (AML12 cells; gallotannin): largely compromised NAD+ synthesis | NRH action with gallotannin at maximal doses (AML12 cells; gallotannin, NRH 0.5 mM): part of the NRH action remained | NRH action with gallotannin at submaximal doses (AML12 cells; gallotannin, submaximal NRH doses): totally blocked | capacity as extracellular NAD+ precursor under ENT blockade (AML12 cells; in the presence of S-(4-nitrobenzyl)-6-thioinosine (NBTI)): largely lost its capacity as an extracellular NAD+ precursor | action on NAD+ under adenosine kinase inhibition by ABT-702 (AML12 cells; second, structurally different AK inhibitor ABT-702): role of AK in NRH-mediated NAD+ synthesis was confirmed | dependence of action on NAMPT (AML12 cells; with FK866, a NAMPT inhibitor): NAMPT-independent | NAD+ levels (INS1-cells): highly elevated NAD+ levels | ability to increase intracellular NAD+ compared with NR (AML12 hepatocytes): better than NR; also recorded: superior to that of NR | concentration range of maximal effects on NAD+ synthesis (AML12 hepatocytes): around the millimolar range | time to significant increases in NAD+ levels after treatment (AML12 hepatocytes): ≤ 5 min | increase of intracellular NAD+ levels at maximal effect (AML12 hepatocytes; around the millimolar range): more than 10 fold | concentration at which NAD+ levels are significantly increased (AML12 hepatocytes; dose-response): 10 µM | NAD+ levels in liver, muscle and kidney (mice): increased NAD+ levels in liver, muscle and kidney | NAD+ levels (3T3 fibroblasts): highly elevated NAD+ levels

generation of NAM in isolated mouse plasma ([2]; 2 h of incubation): increase in NAM | levels of the compound in isolated mouse plasma ([2]; 2 h of incubation): NR levels decayed in plasma | NAD+ levels in NRK1 KO derived primary hepatocytes [5]: failed to increase NAD+ levels | NAM levels in circulation ([3]; mice, IP 500 mg/kg): highly increased
Compound: NC(=O)c1ccc[n+]([C@@H]2O[C@H](CO)[C@@H](O)[C@H]2O)c1 [NR, 1-b-D-ribofuranosyl-3-pyridinecarboxamide salt, reference compound]
NAD+ levels in liver, muscle and kidney (mice): increased NAD+ levels in liver, muscle and kidney
